Experiment: recombinant barcode read abundance after kanamycin selection (control-corrected) (log10(CPM+1)); higher = more efficient recombination; sequences stand for … in AGTGCAGAGAAAATCGGCCAGTTTTCTCTGCCTGCAGTCCGCATGCCGT…AGATTTATGCAGCGGACTGCCTTTCTCCCAAAGTGATAAACCGGACAGTATCATGGACCGGTTTTCCCGGTAATCCGTATTTGCAAGGTTGGTTTCACT; site = the 11-nt target
Procedure, shortened: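 Targets were screened in pooled form in E. coli against IS621 bridge RNA target-binding loops. Recombination efficiency is based on barcode counts at recombinant junctions in counts per million, averaged and corrected for the control. Numbers are shown as log10(CPM+1), with duplicate plates on chloramphenicol/ampicillin LB agar (control) or chloramphenicol/ampicillin/kanamycin with 0.1 mM IPTG.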
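Note: IS621 recombinase and bridge RNA in Escherichia coli cells.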

Sequence	recombinant barcode read abundance (log10)
TGGAGCACTTGGGTTCTAACCTGTTGCCT (site TGGAACACTAG)	0
TGGAGCACTTGGGTTCTAACCTGTTGCCT (site TGGACCACTAG)	0.107
TGGAGCACTTGGGTTCTAACCTGTTGCCT (site TGGAGCACTAG)	1.11
TGGAGCACTTGGGTTCTAACCTGTTGCCT (site TGGATCACTAG)	0.0861
TGGAGCCCTTGGGTTCTAACCTGTTGCAA (site TGGAGCCCTAT)	0.0946
TGGAGCCCTTGGGTTCTAACCTGTTGCAA (site TGGAGCCCTCT)	0.0367
TGGAGCCCTTGGGTTCTAACCTGTTGCAA (site TGGAGCCCTGT)	0.263
TGGAGCCCTTGGGTTCTAACCTGTTGCAA (site TGGAGCCCTTT)	0.155
TGGAGCCCTTGGGTTCTAACCTGTTGCAT (site TGGAGCCCTAT)	0.211
TGGAGCCCTTGGGTTCTAACCTGTTGCAT (site TGGAGCCCTCT)	0.053
TGGAGCCCTTGGGTTCTAACCTGTTGCAT (site TGGAGCCCTGT)	0.0522
TGGAGCCCTTGGGTTCTAACCTGTTGCAT (site TGGAGCCCTTT)	0.15
TGGATGCCTTGGGTTCTAACCTGTTGCCT (site TGAATGACTAG)	0.0485
TGGATGCCTTGGGTTCTAACCTGTTGCCT (site TGGATGCCTAG)	0.884
TGGATTGCTTGGGTTCTAACCTGTTGCCT (site TGGATTCCTAG)	0.0162
TGGATTGCTTGGGTTCTAACCTGTTGCCT (site TGGATTGCTAG)	0.74
TGGCACCCTTGGGTTCTAACCTGTTGCGG (site TGGAACCCTCC)	0.129
TGGCACCCTTGGGTTCTAACCTGTTGCGG (site TGGCACCCTCC)	2.42
TGGCACTCTTGGGTTCTAACCTGTTGCTT (site AGGCACTCTCA)	0.177
TGGCACTCTTGGGTTCTAACCTGTTGCTT (site TGGCACTCTAA)	1.02
TGGCCAACTTGGGTTCTAACCTGTTGCGT (site TAGTCAACTAC)	0.434
TGGCCAACTTGGGTTCTAACCTGTTGCGT (site TGGCCAACTAC)	1.84

Sequence	recombinant barcode read abundance (log10)
TGGCGTCCTTGGGTTCTAACCTGTTGCCT (site TGGAGTCCTAG)	0.0306
TGGCGTCCTTGGGTTCTAACCTGTTGCCT (site TGGCGTCCTAG)	0.963
TGGCGTCCTTGGGTTCTAACCTGTTGCCT (site TGGGGTCCTAG)	0.0381
TGGCGTCCTTGGGTTCTAACCTGTTGCCT (site TGGTGTCCTAG)	0.116
TGGGACTCTTGGGTTCTAACCTGTTGCCT (site TGAGACTCTAG)	2.44
TGGGACTCTTGGGTTCTAACCTGTTGCCT (site TGCGACTCTAG)	0.00712
TGGGACTCTTGGGTTCTAACCTGTTGCCT (site TGGGACTCTAG)	2.64
TGGGACTCTTGGGTTCTAACCTGTTGCCT (site TGTGACTCTAG)	0.108
TGGGCACCTTGGGTTCTAACCTGTTGCTT (site GGGGCACCTTA)	0.175
TGGGCACCTTGGGTTCTAACCTGTTGCTT (site TGGGCACCTAA)	1.37
TGGGGTACTTGGGTTCTAACCTGTTGCCT (site TGGAGTACTAG)	0.141
TGGGGTACTTGGGTTCTAACCTGTTGCCT (site TGGCGTACTAG)	0.097
TGGGGTACTTGGGTTCTAACCTGTTGCCT (site TGGGGTACTAG)	1.11
TGGGGTACTTGGGTTCTAACCTGTTGCCT (site TGGTGTACTAG)	0.177
TGGGTCCCTTGGGTTCTAACCTGTTGCTT (site TGAGTCCCTTA)	0.272
TGGGTCCCTTGGGTTCTAACCTGTTGCTT (site TGGGTCCCTAA)	2.1
TGGTACGCTTGGGTTCTAACCTGTTGCCT (site TGGTACGCTAG)	1.45
TGGTACGCTTGGGTTCTAACCTGTTGCCT (site TGGTCCGCTAG)	0.235
TGGTACGCTTGGGTTCTAACCTGTTGCCT (site TGGTGCGCTAG)	0.15
TGGTACGCTTGGGTTCTAACCTGTTGCCT (site TGGTTCGCTAG)	0.24
TGGTGCCCTTGGGTTCTAACCTGTTGCGG (site TGCTTCCCTCC)	0.109
TGGTGCCCTTGGGTTCTAACCTGTTGCGG (site TGGTGCCCTCC)	1.45

Sequence	recombinant barcode read abundance (log10)
TGGTGTACTTGGGTTCTAACCTGTTGCCT (site TGGAGTACTAG)	0.0346
TGGTGTACTTGGGTTCTAACCTGTTGCCT (site TGGCGTACTAG)	0.426
TGGTGTACTTGGGTTCTAACCTGTTGCCT (site TGGGGTACTAG)	0.143
TGGTGTACTTGGGTTCTAACCTGTTGCCT (site TGGTGTACTAG)	0.461
TGTAAGACTTGGGTTCTAACCTGTTGCAG (site GAACGCTCTAA)	0.0634
TGTAAGACTTGGGTTCTAACCTGTTGCAG (site TGTAAGACTCT)	0.644
TGTAAGACTTGGGTTCTAACCTGTTGCTG (site TGTAAGACTCA)	0.505
TGTAAGACTTGGGTTCTAACCTGTTGCTG (site TGTAAGGCTAA)	0.015
TGTAGAGCTTGGGTTCTAACCTGTTGCCG (site TGTAGAGCTCG)	0.243
TGTAGAGCTTGGGTTCTAACCTGTTGCCG (site TGTCGAGCTCG)	0.483
TGTAGAGCTTGGGTTCTAACCTGTTGCCG (site TGTGGAGCTCG)	0
TGTAGAGCTTGGGTTCTAACCTGTTGCCG (site TGTTGAGCTCG)	0.258
TGTAGATCTTGGGTTCTAACCTGTTGCAT (site TGTAGATCTAT)	0.152
TGTAGATCTTGGGTTCTAACCTGTTGCAT (site TGTTGACCTAT)	0.15
TGTAGTCCTTGGGTTCTAACCTGTTGCTT (site TGTAGTCCTAA)	0.0506
TGTAGTCCTTGGGTTCTAACCTGTTGCTT (site TGTAGTCCTAC)	0.264
TGTAGTCCTTGGGTTCTAACCTGTTGCTT (site TGTAGTCCTAG)	0.187
TGTAGTCCTTGGGTTCTAACCTGTTGCTT (site TGTAGTCCTAT)	0.0117
TGTATAGCTTGGGTTCTAACCTGTTGCTA (site GGTTTAGCTTA)	0.00884
TGTATAGCTTGGGTTCTAACCTGTTGCTA (site TGTATAGCTTA)	0.0299
TGTCAACCTTGGGTTCTAACCTGTTGCCT (site TGTCAAACTAG)	0.346
TGTCAACCTTGGGTTCTAACCTGTTGCCT (site TGTCAACCTAG)	0.998

Sequence	recombinant barcode read abundance (log10)
TGTCAACCTTGGGTTCTAACCTGTTGCCT (site TGTCAAGCTAG)	0.12
TGTCAACCTTGGGTTCTAACCTGTTGCCT (site TGTCAATCTAG)	0
TGTCATGCTTGGGTTCTAACCTGTTGCGT (site CTCACACCTCT)	0.238
TGTCATGCTTGGGTTCTAACCTGTTGCGT (site TGTCATGCTAC)	0.163
TGTCCTGCTTGGGTTCTAACCTGTTGCCT (site AGTCCTGCTAG)	0
TGTCCTGCTTGGGTTCTAACCTGTTGCCT (site CGTCCTGCTAG)	0.167
TGTCCTGCTTGGGTTCTAACCTGTTGCCT (site GGTCCTGCTAG)	0.11
TGTCCTGCTTGGGTTCTAACCTGTTGCCT (site TGTCCTGCTAG)	0.36
TGTCGATCTTGGGTTCTAACCTGTTGCCT (site TGTCAATCTAC)	0.0889
TGTCGATCTTGGGTTCTAACCTGTTGCCT (site TGTCGATCTAG)	0.94
TGTCTAGCTTGGGTTCTAACCTGTTGCGG (site CCAAATCCTAT)	0.208
TGTCTAGCTTGGGTTCTAACCTGTTGCGG (site TGTCTAGCTCC)	0.695
TGTCTATCTTGGGTTCTAACCTGTTGCCT (site TGTCTACCTAG)	0.123
TGTCTATCTTGGGTTCTAACCTGTTGCCT (site TGTCTATCTAG)	0.429
TGTCTGGCTTGGGTTCTAACCTGTTGCCT (site AGTCTGGCTAG)	0.215
TGTCTGGCTTGGGTTCTAACCTGTTGCCT (site TGTCTGGCTAG)	0.0185
TGTCTGTCTTGGGTTCTAACCTGTTGCTA (site TGTCTGTCTAA)	0.0174
TGTCTGTCTTGGGTTCTAACCTGTTGCTA (site TGTCTGTCTTA)	0.0943
TGTGAGTCTTGGGTTCTAACCTGTTGCGT (site TGTGAGTCTAA)	0.347
TGTGAGTCTTGGGTTCTAACCTGTTGCGT (site TGTGAGTCTAC)	2.55

From the supplement of paper PMC11208160
